Where a name gives a salt, the structure may show the parent alone.
Legend:
[1] = target: T1, 2-aminoethanethiol dioxygenase (ADO) (Homo sapiens, UniProt Q96SZ5); assay: O2 consumption (oxygen electrode) with purified Fe(II)•ADO, global fit; EPR of Co(II)•ADO also supports binding; type: biochemical
T1 construct: WT hADO (NP_116193.2), His6 tag cleaved with TEV
T1 sequence (Q96SZ5 1-270): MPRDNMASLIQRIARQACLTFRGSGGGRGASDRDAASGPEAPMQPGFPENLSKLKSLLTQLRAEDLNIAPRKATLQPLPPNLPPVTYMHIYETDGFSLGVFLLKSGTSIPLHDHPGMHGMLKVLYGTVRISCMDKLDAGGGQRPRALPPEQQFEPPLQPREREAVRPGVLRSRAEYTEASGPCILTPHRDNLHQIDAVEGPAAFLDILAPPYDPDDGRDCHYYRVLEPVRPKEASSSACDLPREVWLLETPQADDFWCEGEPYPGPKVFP

mouse ADO = target: T2, mouse ADO (Mus musculus, UniProt Q6PDY2); assay: quantitative chemoproteomics in RAW […] and Neuro 2a cells, and in mouse heart and brain; type: cell-based
T2 construct: endogenous
T2 sequence (Q6PDY2 1-256): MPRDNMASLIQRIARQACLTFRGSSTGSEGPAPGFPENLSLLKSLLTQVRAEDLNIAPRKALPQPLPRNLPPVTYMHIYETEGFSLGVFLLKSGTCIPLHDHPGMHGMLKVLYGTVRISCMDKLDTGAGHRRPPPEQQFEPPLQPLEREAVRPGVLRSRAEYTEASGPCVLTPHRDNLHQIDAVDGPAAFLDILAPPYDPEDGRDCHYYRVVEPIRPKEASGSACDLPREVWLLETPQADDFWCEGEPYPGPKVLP

SMILES	Ki [1] [nM]	quantitative chemoproteomics in RAW 264.7 and Neuro 2a cells, and in mouse heart (mouse ADO)
NNc1nncc2ccccc12 [HYZ, Hydralazine]	2480 ± 420	
C#CCOCc1ccc2c(NN)nncc2c1 [HYZyne, 1-hydrazineyl-6-((prop-2-yn-1-yloxy)methyl)phthalazine hydrochloride]		mouse ADO was also identified as a primary, high-reactivity, and high-stoichiometry target of HYZyne in both mouse cell types
